This is an account of results in ChEMBL document CHEMBL3879902, “Compounds and methods for kinase modulation, and indications thereof” (2012).

A short description of data set [1]: Aqueous solubility of the compound in hepes buffer at pH 7.4. In kind it is physicochemical.
Data set [2] in a line: Aqueous solubility of the compound in simulated intestinal fluid at pH 6.8. Format: ADME. To be noted: simulated gi fluid.
A short description of data set [3]: Aqueous solubility of the compound in simulated gastric fluid at pH 1.5. The conditions noted are these: simulated gi fluid. In kind it is ADME.
A short description of data set [4]: Aqueous solubility of the compound in simulated intestinal fluid at pH 4.5. Format: ADME. To be noted: simulated gi fluid.

With `N#Cc1cnc2[nH]cc(C(=O)c3cccc(NS(=O)(=O)c4cccnc4)c3F)c2c1`, the solubility entry in data set [1], in data set [2], in data set [3] and in data set [4] was “Soluble” throughout.
On to `O=C(c1c(F)ccc(NS(=O)(=O)c2cccc(F)c2)c1F)c1c[nH]c2nccc(Cl)c12`, for which the solubility entry in data set [1] is recorded as “Soluble”; in data set [2] it was “Soluble”; in data set [3], “Insoluble”; in data set [4], “Soluble”.
`CCCS(=O)(=O)Nc1ccc(F)c(C(=O)c2c[nH]c3ncc(-c4ccnc(F)c4)cc23)c1F`: the solubility result in data set [1], in data set [2], in data set [3] and in data set [4] was “Insoluble” throughout.
As to `Cc1cnc2[nH]cc(C(=O)c3c(F)ccc(NS(=O)(=O)c4ccccc4F)c3F)c2c1`, the solubility result in data set [1] is listed as “Soluble”; in data set [2], “Soluble”; in data set [3], “Insoluble”; in data set [4], “Soluble”.
For the molecule `CCCS(=O)(=O)Nc1ccc(F)c(C(=O)c2c[nH]c3ncc(-c4ccc(S(=O)(=O)N5CCOCC5)cc4)cc23)c1F`, the solubility entry in data set [1], in data set [2], in data set [3] and in data set [4] was “Insoluble” throughout.
Take `COc1ncc(-c2cnc3[nH]cc(C(=O)c4c(F)ccc(NS(=O)(=O)c5c(F)cccc5F)c4F)c3c2)cn1`: the solubility entry in data set [1] is reported as “Soluble”; in data set [2], “Insoluble”; in data set [3] it was “Insoluble”; in data set [4], “Insoluble”.
With `Cc1cnc2[nH]cc(C(=O)c3c(F)ccc(NS(=O)(=O)c4cc(F)ccc4F)c3F)c2c1`, the solubility entry is recorded as “Soluble” in data set [1], “Soluble” in data set [2], “Soluble” in data set [3] and “Insoluble” in data set [4].
As to `COc1cnc2[nH]cc(C(=O)c3c(F)ccc(NS(=O)(=O)c4cc(F)ccc4F)c3F)c2c1`, the solubility result in data set [1] was “Soluble”; in data set [2], “Soluble”; in data set [3] it was “Insoluble”; in data set [4], “Insoluble”.
Regarding `CCCS(=O)(=O)Nc1ccc(F)c(C(=O)c2c[nH]c3ncc(-c4ccc(NC(C)=O)nc4)cc23)c1F`, the solubility result in data set [1] is on record as “Insoluble”; in data set [2], “Insoluble”; in data set [3] it was “Soluble”; in data set [4] it was “Insoluble”.
On to `O=C(c1c(F)ccc(NS(=O)(=O)c2cc(F)ccc2F)c1F)c1c[nH]c2nccc(Cl)c12`, for which the solubility result is “Soluble” in data set [1], “Soluble” in data set [2], “Insoluble” in data set [3] and “Soluble” in data set [4].
`CCCS(=O)(=O)Nc1ccc(F)c(C(=O)c2c[nH]c3ncc(-c4cnn(Cc5ccccc5)c4)cc23)c1F`: the solubility result in data set [1], in data set [2], in data set [3] and in data set [4] was “Insoluble” throughout.
Take `CCCS(=O)(=O)Nc1ccc(F)c(C(=O)c2c[nH]c3ncc(-c4ccc(S(=O)(=O)N(C)C)cc4)cc23)c1F`: the solubility entry in data set [1], in data set [2], in data set [3] and in data set [4] was “Insoluble” each time.
For the molecule `CCCS(=O)(=O)Nc1ccc(F)c(C(=O)c2c[nH]c3ncc(-c4ccc(NS(C)(=O)=O)cc4)cc23)c1F`, the solubility entry in data set [1], in data set [2], in data set [3] and in data set [4] was “Insoluble” in each case.
With `CCCS(=O)(=O)Nc1ccc(F)c(C(=O)c2c[nH]c3ncc(-c4ccc(S(N)(=O)=O)cc4)cc23)c1F`, the solubility entry in data set [1], in data set [2], in data set [3] and in data set [4] was “Insoluble” each time.
Take `CCCS(=O)(=O)Nc1ccc(F)c(C(=O)c2c[nH]c3ncc(-c4ccc(OCCCN5CCOCC5)nc4)cc23)c1F`: the solubility result in data set [1] is given as “Insoluble”; in data set [2] it was “Insoluble”; in data set [3] it was “Soluble”; in data set [4], “Soluble”.
With `CCCS(=O)(=O)Nc1ccc(F)c(C(=O)c2c[nH]c3ncc(-c4cnc(N(C)C)nc4)cc23)c1F`, the solubility result in data set [1] is given as “Insoluble”; in data set [2] it was “Insoluble”; in data set [3] it was “Soluble”; in data set [4], “Insoluble”.
`Cc1cnc2[nH]cc(C(=O)c3c(F)ccc(NS(=O)(=O)c4cccnc4)c3F)c2c1`: the solubility entry in data set [1], in data set [2], in data set [3] and in data set [4] was “Soluble” in each case.
Turning to `O=C(c1c(F)ccc(NS(=O)(=O)c2ccccc2F)c1F)c1c[nH]c2nccc(Cl)c12`, the solubility result in data set [1], in data set [2], in data set [3] and in data set [4] was “Soluble” in each case.
Consider `CCCS(=O)(=O)Nc1ccc(F)c(C(=O)c2c[nH]c3ncc(-c4cnc(N5CCOCC5)nc4)cc23)c1F`, for which the solubility entry in data set [1] is on record as “Insoluble”; in data set [2] it was “Insoluble”; in data set [3], “Soluble”; in data set [4], “Insoluble”.
As for `CCCS(=O)(=O)Nc1cccc(C(=O)c2c[nH]c3ncc(-c4cnc(OC)nc4)cc23)c1F`, the solubility result in data set [1], in data set [2], in data set [3] and in data set [4] was “Insoluble” each time.
Regarding `CCCS(=O)(=O)Nc1ccc(F)c(C(=O)c2c[nH]c3ncc(-c4ccc(OCCN5CCCC5)nc4)cc23)c1F`, the solubility entry in data set [1] is reported as “Soluble”; in data set [2], “Insoluble”; in data set [3], “Insoluble”; in data set [4], “Soluble”.
For `N#Cc1cnc2[nH]cc(C(=O)c3cccc(NS(=O)(=O)c4cc(F)ccc4F)c3F)c2c1`, the solubility result in data set [1] was “Soluble”; in data set [2], “Soluble”; in data set [3], “Insoluble”; in data set [4], “Insoluble”.
For the molecule `CCCS(=O)(=O)Nc1ccc(F)c(C(=O)c2c[nH]c3ncc(-c4ccc(C(=O)NCC)nc4)cc23)c1F`, the solubility result in data set [1], in data set [2], in data set [3] and in data set [4] was “Insoluble” in each case.
`CCCS(=O)(=O)Nc1ccc(F)c(C(=O)c2c[nH]c3ncc(-c4ccc(C(=O)NC5CC5)nc4)cc23)c1F`: the solubility result in data set [1], in data set [2], in data set [3] and in data set [4] was “Insoluble” in each case.
Regarding `CCCS(=O)(=O)Nc1ccc(F)c(C(=O)c2c[nH]c3ncc(-c4ccc(OC)nc4OC)cc23)c1F`, the solubility entry in data set [1], in data set [2], in data set [3] and in data set [4] was “Insoluble” in each case.
On to `Cc1cnc2[nH]cc(C(=O)c3c(F)ccc(NS(=O)(=O)c4c(F)cccc4F)c3F)c2c1`, for which the solubility entry is “Soluble” in data set [1], “Soluble” in data set [2], “Soluble” in data set [3] and “Insoluble” in data set [4].
For `CCCS(=O)(=O)Nc1ccc(F)c(C(=O)c2c[nH]c3ncc(-c4ccc(N5CCCC5)nc4)cc23)c1F`, the solubility result in data set [1], in data set [2], in data set [3] and in data set [4] was “Insoluble” throughout.
Consider `CCCS(=O)(=O)Nc1ccc(F)c(C(=O)c2c[nH]c3ncc(-c4ccc(C)nc4)cc23)c1F`, for which the solubility entry in data set [1] is listed as “Insoluble”; in data set [2], “Insoluble”; in data set [3], “Soluble”; in data set [4] it was “Soluble”.
With `O=C(c1c(F)ccc(NS(=O)(=O)c2cccnc2)c1F)c1c[nH]c2ncc(Cl)cc12`, the solubility entry in data set [1], in data set [2], in data set [3] and in data set [4] was “Soluble” each time.
For `CCCS(=O)(=O)Nc1ccc(F)c(C(=O)c2c[nH]c3ncc(-c4ccc(OCCCN(C)C)nc4)cc23)c1F`, the solubility entry in data set [1] is reported as “Insoluble”; in data set [2], “Insoluble”; in data set [3], “Soluble”; in data set [4], “Soluble”.
For the molecule `CCCS(=O)(=O)Nc1ccc(F)c(C(=O)c2c[nH]c3ncc(-c4ccc(C#CCN(CC)CC)nc4)cc23)c1F`, the solubility entry in data set [1], in data set [2], in data set [3] and in data set [4] was “Insoluble” throughout.
With `CCCS(=O)(=O)Nc1ccc(F)c(C(=O)c2c[nH]c3ncc(-c4ccc(N(C)C)nc4)cc23)c1F`, the solubility entry is recorded as “Soluble” in data set [1], “Soluble” in data set [2], “Soluble” in data set [3] and “Insoluble” in data set [4].
For the molecule `CCCS(=O)(=O)Nc1ccc(F)c(C(=O)c2c[nH]c3ncc(-c4ccc(S(C)(=O)=O)cc4)cc23)c1F`, the solubility entry in data set [1], in data set [2], in data set [3] and in data set [4] was “Insoluble” in each case.
Take `CCCS(=O)(=O)Nc1ccc(F)c(C(=O)c2c[nH]c3ncc(-c4cnn(CCN5CCOCC5)c4)cc23)c1F`: the solubility result in data set [1] is “Insoluble”; in data set [2], “Insoluble”; in data set [3], “Soluble”; in data set [4], “Soluble”.
As to `N#Cc1ccnc2[nH]cc(C(=O)c3c(F)ccc(NS(=O)(=O)c4ccccc4F)c3F)c12`, the solubility entry in data set [1], in data set [2], in data set [3] and in data set [4] was “Soluble” in each case.
